By pIC50 is commonly meant the negative decadic logarithm of the IC50, by convention in mol/L. A lower pIC50 goes with a large IC50. As a reminder, the bioavailability is dose-corrected exposure relative to a reference, in per cent. As a reminder, the AUC(0-t) is the area under the concentration-time curve up to a stated or last time point. A lower AUC(0-t) goes with low exposure. The term Tmax denotes the time at which the peak concentration occurs. By Vd is commonly meant the apparent volume that relates the amount in the body to the concentration in plasma or blood. Higher therefore signals wide distribution into tissue.

pIC50: −log10 of the molar value. Calls of active or inactive are those of the source. No cut-off for these calls is given here.

The record followed here is ChEMBL document CHEMBL5034019, “Discovery of the Next-Generation Pan-TRK Kinase Inhibitors for the Treatment of Cancer” (J Med Chem, 2021).

A short description of data set [1]: Toxicity in […] xenografted with mouse BaF3 cells transfected with LMNA-NTRK1-G595R mutant assessed as death at 100 mg/kg, po administered once daily for 21 days and measured twice weekly. It is filed as organism-based. The conditions noted are these: in vivo, 504 h, time 21 day.
The nature of data set [2]: Toxicity in mouse xenografted with mouse BaF3 cells transfected with ETV6-NTRK3-G623R mutant assessed as unkempt appearance at 100 mg/kg, po administered once daily for 21 days and measured twice weekly. The conditions noted are these: in vivo, 504 h.
The nature of data set [3]: cells. To be noted: Homo sapiens, MO-91.
Description: Antiproliferative activity against TrK fused human MO-91 cells
Data set [4] can be described thus: Oral bioavailability in Sprague-Dawley rat at 10 mg/kg measured up to 24 hrs by LC/MS/MS analysis. The data set is classed as ADME, organism-based. To be noted: in vivo.
A short description of data set [5]: Toxicity in […] xenografted with mouse BaF3 cells transfected with LMNA-NTRK1 assessed as weight loss at 20 mg/kg, po administered once daily for 21 days and measured twice weekly. It is filed as organism-based. To be noted: in vivo, 504 h, time 21 day.
Data set [6] has as its target Tyrosine-protein kinase JAK3 (Homo sapiens) (UniProt P52333). The experiment in a line: Inhibition of human JAK3 (781 to end residues) assessed as residual activity at 0.5 uM using GGEEEEYFELVKKKK as substrate after 40 mins by [gamma-33ATP] radiometric assay relative to control.
The target in data set [7] is ALK tyrosine kinase receptor (Homo sapiens, UniProt Q9UM73).
Description: Inhibition of ALK (unknown origin) incubated for 120 mins in presence of 33P-ATP
The nature of data set [8]: AUC (0 to t) in female Sprague-Dawley rat at 2 mg/kg, iv measured up to 24 hrs by LC-MS/MS analysis. Also on record: route intravenous, dose 2 mg/kg, time <=24. The data set is classed as ADME, organism-based. To be noted: in vivo.
Data set [9] is filed under the species Homo sapiens. Briefly: Inhibition of recombinant […] human B-Raf V599E mutant (416 to end residues) assessed as residual activity at 0.5 uM using myelin basic protein as substrate incubated for 40 mins in presence of [gamma-33ATP] by scintillation counting based radiometry assay relative to control.
The nature of data set [10]: Tmax in female Sprague-Dawley rat at 10 mg/kg, po measured up to 24 hrs by LC-MS analysis. The conditions noted are these: in vivo. It is filed as ADME, organism-based.
Data set [11] is described as follows: AUC (0 to t) in male Sprague-Dawley rat at 10 mg/kg, po measured up to 24 hrs by LC-MS/MS analysis. It is filed as ADME, organism-based. To be noted: in vivo. Also on record: route oral, dose 10 mg/kg, time <=24.
Data set [12] can be described thus: Tmax in male Sprague-Dawley rat at 10 mg/kg, po measured up to 24 hrs by LC-MS analysis. To be noted: in vivo. It is filed as ADME, organism-based.
For data set [13], the system named is Platelet-derived growth factor receptor alpha (Homo sapiens), P16234 [V561D]. The experiment in a line: Inhibition of human PDGFRalpha V561D mutant (550 to end residues) assessed as residual activity at 0.5 uM using poly(Glu, Tyr) 4:1 as substrate measured after 40 mins in presence of [gamma33P]ATP by scintillation counting based radiometry assay relative to control.
Sequence of Platelet-derived growth factor receptor alpha (Homo sapiens), P16234 [V561D] (P16234 whole entry V561D): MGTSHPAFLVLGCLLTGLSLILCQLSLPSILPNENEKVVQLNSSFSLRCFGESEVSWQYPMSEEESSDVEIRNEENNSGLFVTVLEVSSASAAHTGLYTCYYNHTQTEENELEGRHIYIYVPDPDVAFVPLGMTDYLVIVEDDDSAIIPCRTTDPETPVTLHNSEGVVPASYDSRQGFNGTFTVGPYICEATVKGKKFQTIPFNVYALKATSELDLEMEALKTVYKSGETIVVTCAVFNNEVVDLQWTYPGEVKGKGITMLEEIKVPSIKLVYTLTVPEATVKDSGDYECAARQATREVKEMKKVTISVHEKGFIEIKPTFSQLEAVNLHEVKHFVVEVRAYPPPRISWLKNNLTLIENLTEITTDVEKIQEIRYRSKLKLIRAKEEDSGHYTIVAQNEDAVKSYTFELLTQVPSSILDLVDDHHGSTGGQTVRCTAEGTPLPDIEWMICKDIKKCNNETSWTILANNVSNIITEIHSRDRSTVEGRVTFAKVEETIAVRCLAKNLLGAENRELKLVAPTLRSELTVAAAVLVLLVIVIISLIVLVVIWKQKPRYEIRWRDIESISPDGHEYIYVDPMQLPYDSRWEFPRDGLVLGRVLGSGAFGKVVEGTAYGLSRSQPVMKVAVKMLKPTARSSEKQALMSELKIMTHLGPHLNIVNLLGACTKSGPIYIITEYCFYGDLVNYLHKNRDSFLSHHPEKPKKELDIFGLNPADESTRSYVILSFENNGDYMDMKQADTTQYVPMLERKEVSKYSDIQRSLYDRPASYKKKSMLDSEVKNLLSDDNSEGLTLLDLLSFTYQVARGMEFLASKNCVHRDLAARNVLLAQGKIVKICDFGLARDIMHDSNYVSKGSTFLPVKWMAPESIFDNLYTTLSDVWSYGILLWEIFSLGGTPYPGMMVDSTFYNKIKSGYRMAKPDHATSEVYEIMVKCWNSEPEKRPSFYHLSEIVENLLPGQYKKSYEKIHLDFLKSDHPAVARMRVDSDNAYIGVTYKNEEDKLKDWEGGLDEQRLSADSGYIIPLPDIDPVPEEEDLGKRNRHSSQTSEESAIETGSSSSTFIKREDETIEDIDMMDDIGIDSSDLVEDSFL

For data set [14], the target named is Fibroblast growth factor receptor 3 (Homo sapiens) (UniProt P22607). Briefly: Inhibition of recombinant human FGFR3 (447 to 761 residues) assessed as residual activity at 0.5 uM using poly(Glu, Tyr) 4:1 as substrate at 40 mins in presence of [gamma-33ATP] by scintillation counting based radiometry assay relative to control.
Data set [15] in a line: Toxicity in mouse xenografted with mouse BaF3 cells transfected with ETV6-NTRK3-G623R mutant assessed as weight loss at 20 mg/kg, po administered once daily for 21 days and measured twice weekly. The conditions noted are these: in vivo, 504 h.
For data set [16], the system named is Hepatocyte growth factor receptor (Homo sapiens), P08581 [Y1248C]. The experiment in a line: Inhibition of recombinant human Met Y1248C mutant (974 to end residues) assessed as residual activity at 0.5 uM using KKKGQEEEYVFIE as substrate incubated for 40 mins in presence of [gamma-33P]-ATP by scintillation counting method relative to control.
In data set [17] the test system is Platelet-derived growth factor receptor alpha (Homo sapiens), P16234 [D842V]. Briefly: Inhibition of human PDGFRalpha D842V mutant (550 to end residues) assessed as residual activity at 0.5 uM using poly(Glu, Tyr) 4:1 as substrate measured after 40 mins in presence of [gamma33P]ATP by scintillation counting based radiometry assay relative to control.
Sequence of Platelet-derived growth factor receptor alpha (Homo sapiens), P16234 [D842V] (P16234 whole entry D842V): as the sequence (P16234 whole entry V561D) above, with D561V, D842V counted along it
Data set [18] deals with Proto-oncogene tyrosine-protein kinase receptor Ret (Homo sapiens), P07949 [V804M]. Briefly: Inhibition of recombinant human Ret V804M mutant (658 to end residues) assessed as residual activity at 0.5 uM using […] as substrate incubated for 40 mins in presence of [gamma33P]ATP by scintillation counting based radiometry assay relative to control.
Sequence of Proto-oncogene tyrosine-protein kinase receptor Ret (Homo sapiens), P07949 [V804M] (P07949 whole entry V804M): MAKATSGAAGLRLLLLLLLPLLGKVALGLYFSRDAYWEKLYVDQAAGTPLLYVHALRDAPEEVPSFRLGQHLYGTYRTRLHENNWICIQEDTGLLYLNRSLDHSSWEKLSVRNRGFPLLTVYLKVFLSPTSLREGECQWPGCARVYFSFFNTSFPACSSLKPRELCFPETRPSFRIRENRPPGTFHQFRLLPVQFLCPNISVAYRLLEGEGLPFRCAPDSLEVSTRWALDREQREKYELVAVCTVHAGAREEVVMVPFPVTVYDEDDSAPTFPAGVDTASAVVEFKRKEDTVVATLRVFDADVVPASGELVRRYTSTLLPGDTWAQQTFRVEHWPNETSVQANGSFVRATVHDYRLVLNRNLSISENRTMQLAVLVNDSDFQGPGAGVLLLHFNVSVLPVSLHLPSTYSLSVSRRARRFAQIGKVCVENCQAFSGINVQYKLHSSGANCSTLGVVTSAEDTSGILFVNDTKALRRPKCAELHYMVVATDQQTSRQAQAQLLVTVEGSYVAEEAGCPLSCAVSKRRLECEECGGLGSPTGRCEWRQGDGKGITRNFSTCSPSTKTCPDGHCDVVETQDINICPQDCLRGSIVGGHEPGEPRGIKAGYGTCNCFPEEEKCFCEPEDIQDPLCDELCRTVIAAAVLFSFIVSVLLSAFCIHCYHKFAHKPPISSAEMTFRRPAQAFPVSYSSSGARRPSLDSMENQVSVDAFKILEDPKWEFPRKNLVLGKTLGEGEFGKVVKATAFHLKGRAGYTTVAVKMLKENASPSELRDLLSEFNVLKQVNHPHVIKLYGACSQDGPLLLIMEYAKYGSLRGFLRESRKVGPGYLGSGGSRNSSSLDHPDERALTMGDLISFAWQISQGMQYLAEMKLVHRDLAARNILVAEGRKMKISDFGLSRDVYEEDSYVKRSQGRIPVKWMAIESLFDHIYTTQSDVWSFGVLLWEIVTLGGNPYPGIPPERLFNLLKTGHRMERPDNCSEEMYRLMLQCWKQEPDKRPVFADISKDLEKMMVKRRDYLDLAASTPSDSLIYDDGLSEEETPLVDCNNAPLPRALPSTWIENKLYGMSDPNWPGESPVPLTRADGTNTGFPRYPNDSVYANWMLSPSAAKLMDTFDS
The subject of data set [19] is BaF3. Briefly: Antitumor activity against mouse BaF3 cells transfected with LMNA-NTRK1 xenografted in mouse assessed as tumor growth inhibition at 5 to 20 mg/kg, po administered once daily for 21 days and measured twice weekly. To be noted: dose 5-20 mg/kg, time 21.0 day.
The target in data set [20] is Fibroblast growth factor receptor 1 (Homo sapiens) (UniProt P11362). Briefly: Inhibition of recombinant human FGFR1 (456 to 765 residues) assessed as residual activity at 0.5 uM using KKKSPGEYVNIEF as substrate at 40 mins in presence of [gamma-33ATP] by scintillation counting based radiometry assay relative to control.
Data set [21] concerns Mast/stem cell growth factor receptor Kit (Homo sapiens), P10721 [V560G]. Briefly: Inhibition of recombinant human C-Kit V560G mutant (544 to end residues) assessed as residual activity at 0.5 uM poly(Glu, Tyr) 4:1 as substrate incubated 40 mins in presence of [gamma-33ATP] by scintillation counting based radiometry assay relative to control.
Sequence of Mast/stem cell growth factor receptor Kit (Homo sapiens), P10721 [V560G] (P10721 whole entry V560G): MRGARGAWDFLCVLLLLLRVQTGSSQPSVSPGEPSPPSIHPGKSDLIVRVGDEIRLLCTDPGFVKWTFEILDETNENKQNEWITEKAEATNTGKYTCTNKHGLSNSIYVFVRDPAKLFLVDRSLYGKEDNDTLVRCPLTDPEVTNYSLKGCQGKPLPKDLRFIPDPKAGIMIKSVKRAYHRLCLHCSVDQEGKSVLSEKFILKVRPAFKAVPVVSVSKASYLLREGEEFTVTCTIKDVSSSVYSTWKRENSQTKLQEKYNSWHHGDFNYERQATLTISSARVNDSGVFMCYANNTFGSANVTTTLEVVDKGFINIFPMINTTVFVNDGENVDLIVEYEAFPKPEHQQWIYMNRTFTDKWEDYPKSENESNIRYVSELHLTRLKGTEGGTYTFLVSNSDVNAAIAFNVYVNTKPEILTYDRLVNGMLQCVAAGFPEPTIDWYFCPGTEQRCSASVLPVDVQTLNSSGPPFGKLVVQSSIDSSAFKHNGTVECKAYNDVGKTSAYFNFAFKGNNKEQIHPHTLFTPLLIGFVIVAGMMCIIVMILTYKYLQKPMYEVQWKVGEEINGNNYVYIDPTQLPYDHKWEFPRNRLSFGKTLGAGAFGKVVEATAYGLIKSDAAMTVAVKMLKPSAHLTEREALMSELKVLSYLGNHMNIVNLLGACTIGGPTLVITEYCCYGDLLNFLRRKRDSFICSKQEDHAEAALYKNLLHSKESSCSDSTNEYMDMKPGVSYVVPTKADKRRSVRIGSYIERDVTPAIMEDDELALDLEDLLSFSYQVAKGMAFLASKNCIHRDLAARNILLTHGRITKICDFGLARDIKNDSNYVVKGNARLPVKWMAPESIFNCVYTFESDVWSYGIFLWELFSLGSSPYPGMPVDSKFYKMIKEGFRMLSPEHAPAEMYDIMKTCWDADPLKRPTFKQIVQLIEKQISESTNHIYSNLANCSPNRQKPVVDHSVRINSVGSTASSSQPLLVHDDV
Data set [22] is described as follows: Toxicity in mouse xenografted with mouse BaF3 cells transfected with LMNA-NTRK1-G595R mutant assessed as weight loss at 20 mg/kg, po administered once daily for 21 days and measured twice weekly. To be noted: in vivo, 504 h.
Data set [23] deals with Hepatocyte growth factor receptor (Homo sapiens), P08581 [M1268T]. The experiment in a line: Inhibition of recombinant human Met M1268T mutant (974 to end residues) assessed as residual activity at 0.5 uM using KKKGQEEEYVFIE as substrate incubated for 40 mins in presence of [gamma-33P]-ATP by scintillation counting method relative to control.
In data set [24] the test system is Hepatocyte growth factor receptor (Homo sapiens), P08581 [Y1248D]. Briefly: Inhibition of recombinant human Met Y1248D mutant (974 to end residues) assessed as residual activity at 0.5 uM using KKKGQEEEYVFIE as substrate incubated for 40 mins in presence of [gamma-33P]-ATP by scintillation counting method relative to control.
The test system of data set [25] is Mast/stem cell growth factor receptor Kit (Homo sapiens), P10721 [V654A]. Briefly: Inhibition of recombinant human C-Kit V654A mutant (544 to end residues) assessed as residual activity at 0.5 uM poly(Glu, Tyr) 4:1 as substrate incubated 40 mins in presence of [gamma-33ATP] by scintillation counting based radiometry assay relative to control.
Sequence of Mast/stem cell growth factor receptor Kit (Homo sapiens), P10721 [V654A] (P10721 whole entry V654A): as the sequence (P10721 whole entry V560G) above, with G560V, V654A counted along it
Data set [26] can be described thus: Volume of distribution in female Sprague-Dawley rat at 2 mg/kg, iv measured up to 24 hrs by LC-MS/MS analysis. The data set is classed as ADME, organism-based. The conditions noted are these: in vivo.

Sequence of Tyrosine-protein kinase JAK3 (Homo sapiens) (P52333 whole entry): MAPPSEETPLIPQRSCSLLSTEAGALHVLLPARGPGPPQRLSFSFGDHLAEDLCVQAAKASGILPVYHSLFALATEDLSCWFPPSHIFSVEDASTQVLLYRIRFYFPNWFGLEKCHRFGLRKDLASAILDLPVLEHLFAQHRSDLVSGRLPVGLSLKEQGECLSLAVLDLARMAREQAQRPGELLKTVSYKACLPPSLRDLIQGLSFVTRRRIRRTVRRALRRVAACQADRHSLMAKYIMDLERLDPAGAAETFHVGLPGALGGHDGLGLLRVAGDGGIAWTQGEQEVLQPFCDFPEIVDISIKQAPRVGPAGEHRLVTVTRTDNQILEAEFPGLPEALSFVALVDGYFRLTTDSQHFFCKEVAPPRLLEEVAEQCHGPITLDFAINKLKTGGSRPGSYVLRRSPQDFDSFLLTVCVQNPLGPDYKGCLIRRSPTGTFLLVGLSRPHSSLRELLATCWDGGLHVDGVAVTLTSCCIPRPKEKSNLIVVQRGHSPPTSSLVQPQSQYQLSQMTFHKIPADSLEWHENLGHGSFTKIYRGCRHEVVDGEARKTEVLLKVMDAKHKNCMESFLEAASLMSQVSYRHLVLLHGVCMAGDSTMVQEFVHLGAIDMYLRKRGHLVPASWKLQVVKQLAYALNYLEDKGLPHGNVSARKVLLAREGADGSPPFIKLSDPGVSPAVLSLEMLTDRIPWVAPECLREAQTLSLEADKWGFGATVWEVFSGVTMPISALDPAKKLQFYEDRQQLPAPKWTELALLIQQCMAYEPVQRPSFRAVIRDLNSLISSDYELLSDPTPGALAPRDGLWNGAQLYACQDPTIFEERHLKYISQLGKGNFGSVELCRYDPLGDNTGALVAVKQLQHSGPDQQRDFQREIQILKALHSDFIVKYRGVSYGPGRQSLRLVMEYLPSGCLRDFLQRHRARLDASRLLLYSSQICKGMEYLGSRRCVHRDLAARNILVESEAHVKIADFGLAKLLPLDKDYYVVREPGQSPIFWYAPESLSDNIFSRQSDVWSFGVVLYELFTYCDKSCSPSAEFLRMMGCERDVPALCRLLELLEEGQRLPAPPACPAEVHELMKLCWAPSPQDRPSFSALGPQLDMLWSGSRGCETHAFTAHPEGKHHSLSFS

Consider `C[C@@H]1CCc2ncc(F)cc2[C@H]2CCCN2c2ccn3ncc(c3n2)C(=O)N1` [SELITRECTINIB], for which the Activity result in [1] and in data set [2] was “Toxic” in each case. Further, the pIC50 in data set [3] was at least 8.30. The compound also yielded a bioavailability in [4] of 74%.

As to `O=C1NC2(CC2)COc2ncc(F)cc2[C@H]2COCCN2c2ccn3ncc1c3n2`, the Activity result in [5] was “Toxic”; in data set [6], 94%; in data set [9], 87%; in data set [13], 103%; in data set [14], 96%; in [15] it was “Toxic”. Further, the Activity in [16] was 85%; in data set [17], 102%; in [18] it was 54%; in [20], 92%; in [21], 109%; in data set [22], “Toxic”. Further, the Activity in [23] stood at 86%; in data set [24] it was 96%; in data set [25] it was 105%. The compound also showed a pIC50 in [7] of 6.74. Also, the results for the AUC(0-t) at 24 h in data set [8] and in data set [11] were 10.3 µM·h and 11.7 µM·h, respectively. The Tmax in data set [10] and in [12] was 40 min throughout. The result in data set [19] was Active. In addition, the Vd in data set [26] came to 1.46 L/kg.
